Laboratory results taken from BindingDB's records for patent US11352330 (Hoffmann-La Roche, 2022).
pIC50: −log10 of the molar value.

Target: Autotaxin (Homo sapiens, UniProt Q13822)
Assay: Human ATX Enzyme Inhibition Assay
Description: Assay working solutions were made as follows:Assay buffer (50 mM Tris-HCl, 140 mM NaCl, 5 mM KCl, 1 mM CaCl2, 1 mM MgCl2, 0.01% Triton-X-100, pH 8.0;ATX solution: ATX (human His-tagged) stock solution (1.08 mg/mL in 20 mM bicine, pH 8.5, 0.15 M NaCl, 10% glycerol, 0.3% CHAPS, 0.02% NaN3), diluted to 1.4-2.5× final concentration in assay buffer;MR121 substrate solution: MR121 substrate stock solution (800 μM MR121 substrate in DMSO), diluted to 2-5× final concentration in assay buffer.Test compounds (10 mM stock in DMSO, 8 μL) were obtained in 384 well sample plates (Corning Costar #3655) and diluted with 8 μL DMSO. Row-wise serial dilutions were made by transferring 8 μL cpd solution to the next row up to row O. The compound and control solutions were mixed five times and 2 μL were transferred to 384 well assay plates (Corning Costar #3702). Then, 15 μL of 41.7 nM ATX solution was added (30 nM final concentration), mixed five times and then incubated for 15 minutes at 30° C. 10 μL of MR121 substrate solution was added (1 μM final concentration), mixed 30 times and then incubated for 15 minutes at 30° C.

## COc1ccccc1-c1cc(Cl)c(C)cc1OCc1n[nH]c(=O)n1C [US11352330, Example B56]
  pIC50: 7.82
